The test system of data set [1] is Chinese hamster lung (CHL) cell. The data set can be described thus: Chromosomal aberration test. The data set is classed as cell-based. The note with it: for induction of chromosomal aberration: CHL cell. An excerpt: For measuring the induction of chromosomal aberration, the chromosomal aberration test has been carried out using Chinese hamster lung (CHL) cell. 2 kinds of methods have been adopted, such as, metabolic activation method (+S9) using metabolic activation system and direct method (−S9) without metabolic activation system.
For determining the test material reacting concentration, the cell growth inhibition test has been carried out. The test material has been dissolved and diluted in dimethyl sulfoxide (DMSO). Regardless of metabolic activation system, 12 concentration steps (2.43, 4.87, 9.75, 19.5, 39.1, 78.1, 156.3, 312.5, 625, 1250, 2500, 5000 μg/ml) of test material have been prepared. The cells have been cultured for 24 hours as the same way of main test. […] The medium has been further cultured for 18 hours.
Based upon the data of cell growth inhibition test, maximum concentration has been determined when the cell growth has been inhibited up to 50% as the relative cell numbers.
Regardless of metabolic activation system, the test materials have been prepared after 24 hours from the initiation of test. Then, the number of chromosomal aberration has been counted.

Data set [2] relates to HCl-Ethanol inducing gastritis model. The data set can be described thus: HCl-Ethanol inducing gastritis model. The note with it: for Lesion inhibition rate: Table 2, ineffective compounds, dose not given; for ED50: regression analysis, read-out: 50% effective dose (ED50). Type of data set: in vivo, white rats. How it is done:
After white rats have been fasted for 24 hours, CD-101, CD-102 and CD-103 compound have been orally administered according to method disclosed in Mizui et al., Jap. J. Pharmacol. 33: pp. 939-945 (1983). After 1 hour, 1.5 ml of 60% ethanol including 150 mM HCl has been orally administered to each animal. 1 hour later, animals have been sacrificed by cervical dislocation. After removing the stomach, the stomach has been fixed by injection of 13 ml of 2% formalin for 1 hour. After fixed stomach has been spread out, the lesion area has been measured using the photo by digital camera. Computer program Image J 1.38 (NIH, Bethesda, Md.) has been applied for measuring gastric lesion area (mm^2). The lesion inhibition rate has been calculated according to following equation. Further, 50% effective dose (ED50) has been also calculated using regression analysis.
Lesion inhibition rate(%)={gastric lesion area of control group(mm^2)−gastric lesion area of drug administration group(mm^2)}/gastric lesion area of control group(mm^2)×100

For data set [3], the system named is indomethacin inducing stomach ulcer model. Nature of the data set: indomethacin inducing stomach ulcer model. Type of data set: in vivo, white rats. The note with it: oral; for ED50: regression analysis, read-out: 50% effective dose (ED50). Here is the method:
After white rats have been fasted for 24 hours, CD-101, CD-102 and CD-103 compound have been orally administered according to method disclosed in Yamasaki et al., Jap. J. Pharmacol. 49: pp. 441-448 (1989). After 1 hour, indomethacin (50 mg/kg) has been orally administered to each animal. After fasting for 5 hours, animals have been sacrificed by cervical dislocation. After removing the stomach, the stomach has been fixed by injection of 13 ml of 2% formalin for 1 hour. After fixed stomach has been spread out, the lesion area has been measured using the photo by digital camera. Computer program Image J 1.38 (NIH, Bethesda, Md.) has been applied for measuring gastric lesion area (mm^2). The lesion inhibition rate and 50% effective dose (ED50) have been calculated as the same manner of HCl-EtOH model.

The mark [4] stands for this setting: Rattus norvegicus, oral, dose 1 mg/kg, read-out: Lesion inhibition rate.
The mark [5] stands for this setting: Rattus norvegicus, oral, dose 3 mg/kg, read-out: Lesion inhibition rate.
Setting [6] is: Rattus norvegicus, oral, dose 10 mg/kg, read-out: Lesion inhibition rate.
The mark [7] stands for this setting: Rattus norvegicus, dose 1 mg/kg, read-out: Lesion inhibition rate.
Setting [8] is: Rattus norvegicus, dose 3 mg/kg, read-out: Lesion inhibition rate.
[9] abbreviates: Rattus norvegicus, dose 10 mg/kg, read-out: Lesion inhibition rate.

“Also recorded” adds a separate entry of the source. Marks after values point to notes of the source that are not given here.

Turning to `C=C1C(=O)O[C@@H]2/C=C(\C)CC/C=C(\C)C[C@@H](OC(C)=O)C12` (stereo partly drawn) [reference compound], the “Result (chromosomal aberration test)” value was “positive positive” in data set [1] (Table 5, + S9) and “positive positive” in data set [1] (Table 5, − S9).
Turning to `CC(C)=C1C(=O)COC1=O`, the Lesion inhibition rate entry in data set [2] is recorded as “no effect”.
`C=C1CC[C@@H]2[C@](C)(CO)[C@H](O)CC[C@@]2(C)[C@@H]1C/C=C1/C(=O)OC[C@H]1O`: the Lesion inhibition rate result in data set [2] is “no effect”.
For the compound `CC(=O)O[C@@H]1/C=C(\C)CCC/C(C)=C/[C@H]2OC(=O)[C@H](CN(C)C)C12` (stereo partly drawn) [reference compound], the “Result (chromosomal aberration test)” value was “positive positive” in data set [1] (Table 5, + S9) and “positive positive” in data set [1] (Table 5, − S9).
With `CC1=C2C3OC(=O)[C@@H](C)[C@@H]3CC[C@@]2(C)C=CC1=O` (stereo partly drawn), the Lesion inhibition rate entry in data set [2] is “no effect”.
Consider `C=C1C(=O)O[C@@H]2[C@@H]3[C@@H](CC[C@@]3(C)O)[C@](C)(OC)CC[C@@H]12` [CD-103], for which the inhibition (usually the share of the control response that was lost under treatment) at 30 mg/kg in data set [2] (Rattus norvegicus, oral, 30 mg/kg administration group, read-out: lesion inhibition rate) came out at 99.5%. The inhibition at 1 mg/kg in data set [2] (setting [4]) was 56.9%; in data set [3] (setting [7]), 37.9%. The inhibition at 3 mg/kg was 66.9% in data set [2] (setting [5]) and 57.3% in data set [3] (setting [8]). In addition, the inhibition at 10 mg/kg in data set [2] (setting [6]) amounted to 99.5%; in data set [3] (setting [9]), 74%. In addition, the ED50 (as a rule, the dose at which the effect has come halfway, by size or by number of responders) in data set [2] (Rattus norvegicus, oral) came out at 2.55 mg/kg; in data set [3] (Rattus norvegicus) it was 2.06 mg/kg. For the same compound, the Gastric lesion area in data set [2] (oral, dose 1 mg/kg) was 80.8 ± 19.4* mm^2; in data set [2] (oral, dose 3 mg/kg), 62.1 ± 32.2* mm^2; in data set [2] (oral, dose 10 mg/kg), 1.0 ± 0.4* mm^2; in data set [3] (dose 1 mg/kg), 37.2 ± 7.0 mm^2; in data set [3] (dose 3 mg/kg) it was 25.6 ± 4.7* mm^2; in data set [3] (dose 10 mg/kg), 15.6 ± 3.1* mm^2. The “Results (chromosomal aberration)” value was “negative” in data set [1] (+S9, dose 2.5 μg/ml); “negative” in data set [1] (+S9, dose 5 μg/ml); “negative” in data set [1] (+S9, dose 10 μg/ml); “negative” in data set [1] (−S9, dose 0.625 μg/ml); “negative” in data set [1] (−S9, dose 1.25 μg/ml); “negative” in data set [1] (−S9, dose 2.5 μg/ml). In addition, the “induction of chromosomal aberration” value in data set [1] is reported as “do not induce the chromosomal aberration”.
As for `C=C1C(=O)O[C@@H]2/C=C(\C)CCC(O)C(C)(O)C[C@@H](OC(C)=O)C12` (stereo partly drawn) [reference compound], the “Result (chromosomal aberration test)” value in data set [1] (Table 5, + S9) is recorded as “positive positive”; in data set [1] (Table 5, − S9), “positive positive”.
As to `CN(C)c1ccc(/C=C2\CCOC2=O)cc1`, the Lesion inhibition rate result in data set [2] is given as “no effect”.
On to `O=C(NC(Cc1cc(=O)[nH]c2ccccc12)C(=O)O)c1ccc(Cl)cc1` (stereo not drawn) [Rebamipide, reference compound], for which the inhibition at 50 mg/kg stood at 30% in data set [2] (Rattus norvegicus, oral, dose 50 mg/kg, read-out: Lesion inhibition rate) and 49.6% in data set [3] (Rattus norvegicus, dose 50 mg/kg, read-out: Lesion inhibition rate). Also, the Gastric lesion area in data set [2] (oral, dose 50 mg/kg) is recorded as 163.9 ± 15.6 mm^2; in data set [3] (dose 50 mg/kg), 30.2 ± 6.4* mm^2.
Take `CO[C@]1(C)CC[C@H]2C(CN(C)CCO)C(=O)O[C@@H]2[C@@H]2[C@H]1CC[C@@]2(C)O` (stereo partly drawn): in data set [2], the Lesion inhibition rate entry is listed as “no effect”.
For `C=C1CC[C@H]2C(=C)C(=O)O[C@@H]2C2[C@H]1CC[C@@]2(C)O` (stereo partly drawn) [CD-102], the figures for the inhibition at 1 mg/kg in data set [2] (setting [4]) and in data set [3] (setting [7]) were 43% and 41.6%, respectively. The inhibition at 3 mg/kg is 70.4% in data set [2] (setting [5]) and 56.1% in data set [3] (setting [8]). The inhibition at 10 mg/kg in data set [2] (setting [6]) came out at 94.9%; in data set [3] (setting [9]), 77.2%. The ED50 was 1.31 mg/kg in data set [2] (Rattus norvegicus, oral) and 1.82 mg/kg in data set [3] (Rattus norvegicus). In addition, the Gastric lesion area in data set [2] (oral, dose 1 mg/kg) is recorded as 133.5 ± 21.0* mm^2; in data set [2] (oral, dose 3 mg/kg), 69.4 ± 18.4* mm^2; in data set [2] (oral, dose 10 mg/kg), 11.9 ± 10.0* mm^2; in data set [3] (dose 1 mg/kg), 35.0 ± 5.2 mm^2; in data set [3] (dose 3 mg/kg), 26.3 ± 6.8* mm^2; in data set [3] (dose 10 mg/kg) it was 13.6 ± 2.9* mm^2. The “Results (chromosomal aberration)” value is “negative” in data set [1] (+S9, dose 5 μg/ml); “negative” in data set [1] (+S9, dose 10 μg/ml); “negative” in data set [1] (+S9, dose 20 μg/ml); “negative” in data set [1] (−S9, dose 1.25 μg/ml); “negative” in data set [1] (−S9, dose 2.5 μg/ml); “negative” in data set [1] (−S9, dose 5 μg/ml). Moreover, the “induction of chromosomal aberration” value in data set [1] was “do not induce the chromosomal aberration”.
Consider `C=C1C(=O)O[C@@H]2[C@@H](O)[C@]3(C)CC[C@H]3[C@](C)(OC)CC[C@@H]12` [CD-101], for which the inhibition at 1 mg/kg in data set [2] (setting [4]) was determined as 42.3%; in data set [3] (setting [7]), 26.9%. Moreover, the inhibition at 3 mg/kg was found to be 74.7% in data set [2] (setting [5]) and 56.6% in data set [3] (setting [8]). For the same compound, the figures for the inhibition at 10 mg/kg in data set [2] (setting [6]) and in data set [3] (setting [9]) were 91.8% and 73.1%, respectively. Moreover, the ED50 in data set [2] (Rattus norvegicus, oral) turned out to be 1.24 ± 0.1 mg/kg; in data set [3] (Rattus norvegicus), 2.78 ± 0.1 mg/kg. Also, the Gastric lesion area in data set [2] (oral, dose 1 mg/kg) was 135.1 ± 43.1 mm^2; in data set [2] (oral, dose 3 mg/kg), 59.3 ± 23.5* mm^2; in data set [2] (oral, dose 10 mg/kg) it was 19.2 ± 11.7* mm^2; in data set [3] (dose 1 mg/kg), 43.8 ± 7.7 mm^2; in data set [3] (dose 3 mg/kg), 26.0 ± 4.7* mm^2; in data set [3] (dose 10 mg/kg), 16.1 ± 4.8* mm^2. The “Results (chromosomal aberration)” value is on record as “negative” in data set [1] (+S9, dose 10 μg/ml); “negative” in data set [1] (+S9, dose 20 μg/ml); “negative” in data set [1] (+S9, dose 40 μg/ml); “negative” in data set [1] (−S9, dose 2.5 μg/ml); “negative” in data set [1] (−S9, dose 5 μg/ml); “negative” in data set [1] (−S9, dose 10 μg/ml). For the same compound, in data set [1], the “induction of chromosomal aberration” value is reported as “neither cytotoxicity nor chromosomal aberration; also recorded: do not induce the chromosomal aberration”.
Consider `CO[C@]1(C)CC[C@H]2C(CN(C)CCO)C(=O)O[C@@H]2[C@@H](O)[C@]2(C)CC[C@H]21` (stereo partly drawn), for which the Lesion inhibition rate result in data set [2] is recorded as “no effect”.
Regarding `CO[C@@]12[C@H](COC(N)=O)C3=C(C(=O)C(C)=C(N)C3=O)N1C[C@@H]1N[C@@H]12` [Mitomycin C, reference compound], the “Results (chromosomal aberration)” value in data set [1] (−S9, dose 0.5 μg/ml) is “positive”.
